In patent US12715844B2, “Compound, preparation method therefor, composition, kit and use thereof” (SIGNDO BIOTECHNOLOGY (SUZHOU) CO., LTD, priority 2023, dated 2026):

Legend:
[1] = Pharmacokinetic parameters in rat plasma; assay type: in vivo; conditions: compared with OTL78
22RV1 (PSMA+) [2] = experiment: Drug efficacy validation by in vivo live imaging, three dose groups; set-up: species or system mice
Source text: (§1) “V” denotes the volume-to-mass ratio. […] Mice refer to BALB/c nude mice, 6-8 weeks old, weighing 18-20 g; rats refer to SD rats: 8 weeks old, approximately 250 g.
2. Drug Efficacy Validation Experiment Using In Vivo Live Imaging
Prostate-specific membrane antigen (PSMA) is overexpressed on prostate cancer cells. The test compound is a PSMA-targeting molecule conjugated with a near-infrared region I dye. The test compound can bind to PSMA and “illuminate” cancer cells upon excitation by a near-infrared light source. In this experiment, the in vivo tissue distribution of the test compound in mice is detected using in vivo live imaging.
DGPR1008, 22RV1 (PSMA+), PC3 (PSMA−), 1640 culture medium, FBS, double antibodies, trypsin, Matrigel (BD), vernier caliper, centrifuge, IVIS live imager.
Matrigel was thawed on ice in advance, and the culture medium was pre-cooled on ice. After centrifugation, the cells were resuspended in the pre-cooled culture medium, followed by the addition of HC Matrigel gel in a volume equal to the culture medium. The centrifuge tube containing the cells was placed on ice and transferred to the animal facility. The cells were thoroughly dispersed before inoculation. The right dorsal shoulder area of the mice was disinfected with an alcohol cotton ball, and a single intravenous administration was performed with an inoculation volume of 200 μL per mouse. All operations were performed on ice. When the tumor volume reached 300-400 mm^3, the mice were grouped for administration. Nine mice with well-grown and regularly shaped tumors were selected into the group. The nine mice were randomly divided into three groups: G1 (25 nmol/mouse), G2 (50 nmol/mouse), and G3 (100 nmol/mouse), with three mice in each group. The scanning time: 1, 2, 4, 8, 24, and 48 h.

22RV1 (PSMA+) [3] = experiment: In vivo live imaging comparison with the existing product OTL78; set-up: species or system mice
Source text: as §1
3. Comparison with the Existing Product OTL78
(§2) The Prostate-specific membrane antigen (PSMA) is overexpressed on prostate cancer cells. The test compound is a PSMA-targeting molecule conjugated with a near-infrared region I dye. The test compound can bind to PSMA and “illuminate” cancer cells upon excitation by a near-infrared light source. In this experiment, the in vivo and ex vivo tissue distribution of the test compound in mice is detected using in vivo live imaging.
DGPR1008, 22RV1 (PSMA+), BALB/c nude mouse, 1640 culture medium, FBS, double antibodies, trypsin, Matrigel (BD), vernier caliper, centrifuge, IVIS live imager.
(§3) Matrigel was thawed on ice in advance, and the culture medium was pre-cooled on ice. After centrifugation, the cells were resuspended in the pre-cooled culture medium, followed by the addition of HC Matrigel gel in a volume equal to the culture medium. The centrifuge tube containing the cells was placed on ice and transferred to the animal facility. The cells were thoroughly dispersed before inoculation. The back of the neck was disinfected with an alcohol cotton ball, and a single intravenous administration was performed with an inoculation volume of 200 μL per mouse. All operations were performed on ice. When the tumor volume reached 300-400 mm^3, the mice were grouped for administration. Six mice with well-grown and regularly shaped tumors were selected into the group. The six mice were randomly divided into two groups: G1 (OTL78 10 nmol/mouse) and G2 (DGPR1008 10 nmol/mouse) with three mice in each group. The scanning time: 1, 2, 4, 8, 24, and 72 h.
(1) Results and Data of In Vivo Live Imaging of Drug Efficacy (Mice were Used as Experimental Subjects in this Part)

[4] = Acute toxicity experiment on rats; conditions: three dose groups of high, medium and low doses
22RV1 (PSMA+) [5] = experiment: 2-hour ex vivo tissue distribution: fluorescence of tumor and in situ normal prostate; set-up: species or system mice; conditions: relative to OTL78
Source text: as §2, §3
(2) Results of 2-Hour Ex Vivo Tissue Distribution: Fluorescence Ratio of Tumor to In Situ Normal Prostate: […]

PSMA receptor = target: T1, PSMA receptor (Homo sapiens, UniProt Q04609); experiment: Receptor binding detected by flow cytometry in vitro (competitive binding with DUPA-FITC); conditions: 22RV1 (PSMA+) cells, competition with 100 nmol/L DUPA-FITC
T1 construct: endogenous in cells; host or cells: 22RV1 (PSMA+); PC3 (PSMA−) as negative control
T1 sequence (Q04609 whole entry): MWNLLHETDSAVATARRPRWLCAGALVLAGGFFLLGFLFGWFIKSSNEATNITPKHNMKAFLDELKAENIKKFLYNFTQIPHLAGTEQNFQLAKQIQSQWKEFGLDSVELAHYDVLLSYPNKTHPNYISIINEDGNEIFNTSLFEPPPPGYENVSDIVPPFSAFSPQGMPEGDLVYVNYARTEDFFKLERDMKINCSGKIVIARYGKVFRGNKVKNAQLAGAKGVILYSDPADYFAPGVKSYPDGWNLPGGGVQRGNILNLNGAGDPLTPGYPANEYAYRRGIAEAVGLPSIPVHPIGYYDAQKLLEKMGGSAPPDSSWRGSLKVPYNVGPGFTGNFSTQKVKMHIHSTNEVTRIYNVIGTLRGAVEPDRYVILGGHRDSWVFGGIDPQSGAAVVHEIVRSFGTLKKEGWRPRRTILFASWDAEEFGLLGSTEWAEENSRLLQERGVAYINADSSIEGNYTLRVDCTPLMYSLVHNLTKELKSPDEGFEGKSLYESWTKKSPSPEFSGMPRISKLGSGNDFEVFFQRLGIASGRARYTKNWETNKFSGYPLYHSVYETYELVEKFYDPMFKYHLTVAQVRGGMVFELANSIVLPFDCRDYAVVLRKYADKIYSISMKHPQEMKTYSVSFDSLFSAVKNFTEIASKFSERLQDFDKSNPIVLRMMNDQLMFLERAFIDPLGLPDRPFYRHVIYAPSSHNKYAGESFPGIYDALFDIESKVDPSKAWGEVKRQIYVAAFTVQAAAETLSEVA
Source text: 1. Receptor Binding was Detected by Flow Cytometry In Vitro:
Prostate-specific membrane antigen (PSMA) is overexpressed on prostate cancer cells. Both DUPA-FITC and DGPR1008 are capable of targeting the PSMA receptor in prostate cancer cells, with the difference being that DUPA-FITC is connected to a visible light dye (Ex=495 nm, Em=520 nm), whereas DGPR1008 is connected to a near-infrared dye (Ex=776 nm, Em=793 nm). Since the majority types of lasers equipped in flow cytometers operate within the visible light spectrum, the binding affinity of DGPR1008 to the receptor can not be directly measured. Therefore, the competitive binding of DGPR1008 with DUPA-FITC to PSMA is employed to indirectly assess the binding affinity of the test compound to the receptor.
DGPR1008, DUPA-FITC, 22RV1 (PSMA+), PC3 (PSMA−), 1640 culture medium, FBS, double antibiotics, trypsin, centrifuge, 4° C. constant temperature incubator, flow cytometer.
Drug preparation: 100 nmol/L DUPA-FITC was prepared using culture medium. The test compound was diluted to nine concentrations (0.00098 μM, 0.002 μM, 0.008 μM, 0.01 μM, 0.03 μM, 0.05 μM, 0.09 μM, 0.1 μM, and 0.125 μM) using culture medium containing 100 nmol/L DUPA-FITC, with three replicate wells for each concentration.
Cell culture: The cells were seeded in T75 culture flasks. After 48 h, cells in the logarithmic growth phase were taken, digested with trypsin for 1-2 min, and the digestion was then terminated by adding fresh culture medium. After cell counting, the cells were transferred into a 96-well plate (1×10^5 cells/well), totaling 27 wells. The culture medium was discarded by centrifugation (800 rpm, 5 min), and the cells were washed twice with PBS and then centrifuged to collect the cell pellet. The prepared culture media with 9 concentrations were added to the cell-containing wells, with three replicates for each concentration. The cells were incubated at 4° C. in the dark for 30 min, and then the culture medium in the wells was discarded. Cells were washed by adding 300 μL of fresh culture medium (twice) and saline (once) to each well, followed by resuspension in 300 μL of saline for flow cytometry detection.

Structure (SMILES): CC1(C)C(=CC=C2CCCC(C=CC3=[N+](CCCCS(=O)(=O)[O-])c4ccc(S(=O)(=O)[O-])cc4C3(C)C)=C2Oc2ccc(CC(NC(=O)CCOCCCOCCCNC(=O)CCC(NC(=O)NC(CCC(=O)[O-])C(=O)[O-])C(=O)[O-])C(=O)[O-])cc2)N(CCCCS(=O)(=O)[O-])c2ccc(S(=O)(=O)[O-])cc21.[Na+].[Na+].[Na+].[Na+].[Na+].[Na+].[Na+] (stereo not drawn) [Example 31]
- clearance in rats in vivo, in words [1]: cleared more rapidly
- targeting properties (22RV1 (PSMA+) [2]; 22RV1 tumor mice, in vivo live imaging): good targeting properties
- enrichment in the prostate cancer tumor site (22RV1 (PSMA+) [2]; high, medium and low doses (25, 50, 100 nmol/mouse), scans 1-48 h): enriched in the prostate cancer tumor site
- TBR (tumor-to-background ratio), in words (22RV1 (PSMA+) [3]; from about 2 h to 72 h): good TBR
- fluorescence value at the tumor site compared with OTL78 (22RV1 (PSMA+) [3]; mice, each time point): greater fluorescence values at the tumor site than OTL78
- TBR compared with OTL78 (22RV1 (PSMA+) [3]; relative to OTL78): higher TBR
- toxic reactions in acute toxicity experiment [4]: no toxic reactions were observed
- discrimination capability (tumor vs normal prostate) compared with OTL78 (22RV1 (PSMA+) [5]): approximately 5 fold
- binding affinity to PSMA receptor (PSMA receptor): good affinity
